# Literature values in patent publication US7160886B2, “Acylated piperazine derivatives as melanocortin-4 receptor agonists” (Merck & Co., Inc., priority 2003, dated 2007).
# System: men with erectile dysfunction
# Conditions: for duration of effect / onset of action: after an oral dose; for patients in whom effective / adequate response: oral
Compound,duration of effect,onset of action [min],patients in whom effective / adequate response
Cc1ccc(N(CC2=NCCN2)c2cccc(O)c2)cc1 [phentolamine],2 h,5 to 30,35–40%
CCCc1nn(C)c2c(=O)[nH]c(-c3cc(S(=O)(=O)N4CCN(C)CC4)ccc3OCC)nc12 [sildenafil],about 4 hours,30 to 60,about 70%
